Values quoted from earlier work as cited in US6469171B1, “Syntheses of a variety of lamellarin compounds and analogues” (The Australian National University, priority 1998, dated 2002).

Legend:
P388 cell line = P388 cell line in culture
A549 cell line = A549 cell line in culture
lung cancer cell lines = settings: by acting as a Type IV microtubule poison
fertilised sea urchin = fertilised sea urchin assay

Compound	cytotoxicity (P388 cell line)	cytotoxicity (A549 cell line)	activity in lung cancer cell lines (lung cancer cell lines)	inhibition of cell division (fertilised sea urchin)
COc1ccc(-c2c3n(c4c(=O)oc5cc(O)c(OC)cc5c24)CCc2cc(O)c(OC)cc2-3)cc1O [Lamellarin L]	significant cytoxicity	significant cytoxicity	–	–
COc1ccc(-c2c3c4cc(OC)c(O)cc4oc(=O)c3n3ccc4cc(O)c(OC)cc4c23)cc1O [Lamellarin N]	–	–	activity	–
Lamellarin K	significant cytoxicity	significant cytoxicity	–	–
COc1cc(-c2c3n(c4c(=O)oc5cc(O)c(OC)cc5c24)CCc2c-3cc(OC)c(OC)c2OC)ccc1O [Lamellarin C]	–	–	–	inhibition of cell division
Lamellarin I	significant cytoxicity	significant cytoxicity	–	–
COc1cc(-c2c3c4cc(OC)c(O)cc4oc(=O)c3n3ccc4cc(O)c(OC)cc4c23)ccc1O [Lamellarin D]	–	–	–	inhibition of cell division
